Experimental data as given in patent US7705038B2, “Control of parasites in animals by the use of parasiticidal 2-phenyl-3-(1H-pyrrol-2-yl)acrylonitrile derivatives” (Intervet, Inc., priority 2004, dated 2010).

Tests used:
[1] = test system: cat fleas (Ctenocephalides felis); assay: Contact activity against cat fleas (LC50, % kill); settings: for % Kill: percent of a sample of cat fleas killed at a concentration of 1.26 μg/cm^2; for pest or weed control at 1.26 µg/cm2, 1.26 µg/cm2: Ctenocephalides felis, read-out: % Kill; for LC50: concentration required to kill 50% of the sample of cat fleas on contact
Excerpt: (§1) Exemplified compounds of Formula 1 are listed by Tables 1a and 1b, above. The activity of these compounds against Haemonchus contortus and cat fleas (Ctenocephalides felis) is summarized by Table 7, below.

Haemonchus contortus = assay: Activity against Haemonchus contortus (LD99); settings: dose required to kill 99% of the sample of Haemonchus contortus
Excerpt: as §1
The LD99 value is the dose, expressed as μg/ml, that was required to kill 99% of the sample of Haemonchus contortus.

Row | SMILES | % Kill [1] [%] | LD99 (Haemonchus contortus) | EC99 (Haemonchus contortus) [µg/mL] | pest or weed control at 1.26 µg/cm2, 1.26 µg/cm2 [1] [%] | LC50 [1] [μg/cm^2]
1 | COc1ccccc1/C(C#N)=C/c1ccc[nH]1 [Compound 91] | 9 |  |  |  | 
2 | CCOCn1cccc1/C=C(\C#N)c1ccc(C(F)(F)F)cc1 [Compound 8] | 6 | 5 µg/mL |  |  | 
3 | CCOCn1cccc1/C=C(\C#N)c1ccc(F)c(F)c1 [Compound 62] |  | 6 µg/mL |  |  | 
4 | N#C/C(=C\c1ccc[nH]1)c1ccc2ccccc2c1 [Compound 66, 2-(2-naphthyl)-3-(1H-pyrrol-2-yl)acrylonitrile] |  |  | 2.5 | 28 | 
5 | CCOCn1cccc1/C=C(\C#N)c1c(Cl)cccc1Cl [Compound 52] |  | — (the symbol ‘—’ indicates tested but inactive up to 15 μg/ml) |  |  | 
6 | CCc1ccc(/C(C#N)=C/c2ccc[nH]2)cc1 [Compound 75] | 58 | 0.875 µg/mL |  |  | 
7 | N#C/C(=C\c1cc(Br)c[nH]1)c1ccc(Cl)c(Cl)c1 [Compound 29] | 15 | 5 µg/mL |  |  | 
8 | CC(C)(C)OC(=O)n1cccc1/C=C(\C#N)c1ccc(Cl)cc1 [Compound 79] | 9 | 3.75 µg/mL |  |  | 
9 | N#C/C(=C\c1cc(Br)c[nH]1)c1ccc(Cl)cc1 [Compound 23] | 23 | 0.469 µg/mL |  |  | 
10 | N#C/C(=C\c1ccc[nH]1)c1cccc(C(F)(F)F)c1 [Compound 9] | 56 | 0.938 µg/mL |  |  | 9.94
11 | Cn1cccc1/C=C(\C#N)c1ccc(C(F)(F)F)cc1 [Compound 21] | 24 | — (the symbol ‘—’ indicates tested but inactive up to 15 μg/ml) |  |  | 
12 | N#C/C(=C\c1ccc[nH]1)c1ccc([N+](=O)[O-])cc1 [Compound 40] | 6 | — (the symbol ‘—’ indicates tested but inactive up to 15 μg/ml) |  |  | 
13 | CCOCn1cccc1/C=C(\C#N)c1cccc2ccccc12 [Compound 65, 2-(1-naphthyl)-3-(1-ethoxymethyl-1H-pyrrol-2-yl)acrylonitrile] |  |  | > 15 |  | 
14 | N#C/C(=C\c1cc(Br)c[nH]1)c1ccc(F)cc1 [Compound 30] | 18 | 11 µg/mL |  |  | 
15 | CCOCn1cccc1/C=C(\C#N)c1cc(C(F)(F)F)cc(C(F)(F)F)c1 [Compound 59] |  | — (the symbol ‘—’ indicates tested but inactive up to 15 μg/ml) |  |  | 
16 | Cc1cccc(/C(C#N)=C/c2ccc[nH]2)c1 [Compound 72] | 42 | 1.25 µg/mL |  |  | 
17 | N#C/C(=C\c1ccc[nH]1)c1ccc2c(c1)OCO2 [Compound 19, 2-(3,4-methylenedioxy)phenyl-3-(1H-pyrrol-2-yl)acrylonitrile] |  |  | 6 | 26 | 
18 | Cc1ccc(/C(C#N)=C/c2ccc[nH]2)c(C)c1 [Compound 88] | 44 | — (the symbol ‘—’ indicates tested but inactive up to 15 μg/ml) |  |  | 
19 | CC(C)(C)c1ccc(/C(C#N)=C/c2ccc[nH]2)cc1 [Compound 15] | 87 | 3.25 µg/mL |  |  | 0.478
20 | CCN(CC)C(=O)n1cccc1/C=C(\C#N)c1ccc(Cl)cc1 [Compound 78] | 8 | 3.5 µg/mL |  |  | 
21 | N#C/C(=C\c1cc(Br)c[nH]1)c1cccc(C(F)(F)F)c1 [Compound 12] |  | 3.25 µg/mL |  |  | 
22 | N#C/C(=C\c1ccc[nH]1)c1ccc(F)cc1Cl [Compound 74] | 30 | 3 µg/mL |  |  | 

Row | SMILES | % Kill [1] [%] | LD99 (Haemonchus contortus) | EC99 (Haemonchus contortus) [µg/mL] | pest or weed control at 1.26 µg/cm2, 1.26 µg/cm2 [1] [%] | LC50 [1] [μg/cm^2]
23 | Cc1ccc(/C(C#N)=C/c2ccc[nH]2)cc1 [Compound 26] | 69 | 0.938 µg/mL |  |  | 
24 | CCOCn1cccc1/C=C(\C#N)c1ccc(C)cc1 [Compound 64] | 20 | — (the symbol ‘—’ indicates tested but inactive up to 15 μg/ml) |  |  | 
25 | N#C/C(=C\c1ccc[nH]1)c1ccc(Br)cc1 [Compound 33] | 15 | 3 µg/mL |  |  | 
26 | N#C/C(=C\c1ccc[nH]1)c1cccc2ccccc12 [Compound 32, 2-(1-naphthyl)-3-(1H-pyrrol-2-yl)acrylonitrile] |  |  | 0.234 | 42 | 
27 | N#C/C(=C\c1ccc[nH]1)c1ccc(I)cc1 [Compound 36] | 14 | 0.688 µg/mL |  |  | 
28 | N#C/C(=C\c1ccc[nH]1)c1cccc(Br)c1 [Compound 39] | 24 | 0.938 µg/mL |  |  | 
29 | N#C/C(=C\c1ccc[nH]1)c1ccccc1Cl [Compound 24] | 19 | 2.75 µg/mL |  |  | 
30 | CCOCn1cccc1/C=C(\C#N)c1ccc(F)cc1 [Compound 49] |  | 14 µg/mL |  |  | 
31 | N#C/C(=C\c1ccc[nH]1)c1ccc(Cl)cc1 [Compound 2, (Z)-2-(4-Chloro-phenyl)-3-(1H-pyrrol-2-yl)acrylonitrile] |  |  | 0.406 | 95 | 0.17
32 | N#C/C(=C\c1ccc[nH]1)c1ccccc1 [Compound 17] | 98 | 0.469 µg/mL |  |  | 0.259
33 | CCOCn1cccc1/C=C(\C#N)c1ccccc1Cl [Compound 54] |  | 7 µg/mL |  |  | 
34 | CCOCn1cccc1/C=C(\C#N)c1ccc(F)cc1F [Compound 60] | 19 | — (the symbol ‘—’ indicates tested but inactive up to 15 μg/ml) |  |  | 
35 | N#C/C(=C\c1ccc[nH]1)c1ccc(F)cc1 [Compound 28] | 19 | 2.5 µg/mL |  |  | 0.295
36 | Cc1ccc(S(=O)(=O)n2cccc2/C=C(\C#N)c2ccc(Cl)cc2)cc1 [Compound 83] |  | 12 µg/mL |  |  | 
37 | COC(=O)n1cccc1/C=C(\C#N)c1ccc(Cl)cc1 [Compound 85] | 16 | 1.25 µg/mL |  |  | 
38 | N#C/C(=C\c1ccc[nH]1)c1ccccc1C(F)(F)F [Compound 90] | 14 |  |  |  | 
39 | N#CC(=Cc1cc(Br)c[nH]1)c1cccc2ccccc12 [Compound 34, 2-(1-naphthyl)-3-(4-bromo-1H-pyrrol-2-yl)acrylonitrile] |  |  | 0.813 | 21 | 
40 | CCC(=O)n1cccc1/C=C(\C#N)c1ccc(Cl)cc1 [Compound 76, (Z)-2-(4-Chlorophenyl)-3-(1-propanoyl-1H-pyrrol-2-yl)acrylonitrile] |  |  | 0.375 | 12 | 
41 | N#C/C(=C\c1ccc[nH]1)c1ccc(F)c(F)c1 [Compound 47] | 17 | 0.75 µg/mL |  |  | 
42 | CCOCn1cccc1/C=C(\C#N)c1c(F)cccc1F [Compound 61] |  | — (the symbol ‘—’ indicates tested but inactive up to 15 μg/ml) |  |  | 
43 | CCOCn1cccc1/C=C(\C#N)c1cccc(Br)c1 [Compound 58] |  | — (the symbol ‘—’ indicates tested but inactive up to 15 μg/ml) |  |  | 
44 | N#C/C(=C\c1ccc[nH]1)c1cccc(Cl)c1 [Compound 1] | 28 | 0.75 µg/mL |  |  | 

Row | SMILES | % Kill [1] [%] | LD99 (Haemonchus contortus) | EC99 (Haemonchus contortus) [µg/mL] | pest or weed control at 1.26 µg/cm2, 1.26 µg/cm2 [1] [%] | LC50 [1] [μg/cm^2]
45 | N#C/C(=C\c1ccc[nH]1)c1ccc(Cl)cc1Cl [Compound 13] | 8 | 3 µg/mL |  |  | 
46 | CCOCn1cccc1/C=C(\C#N)c1ccccc1F [Compound 55] | 10 | — (the symbol ‘—’ indicates tested but inactive up to 15 μg/ml) |  |  | 
47 | Cn1cccc1/C=C(\C#N)c1cccc(C(F)(F)F)c1 [Compound 22] | 19 | 5.5 µg/mL |  |  | 
48 | N#C/C(=C\c1ccc[nH]1)c1ccc(-c2ccccc2)cc1 [Compound 18] | 46 | 7.5 µg/mL |  |  | 
49 | N#C/C(=C\c1ccc[nH]1)c1c(F)cccc1Cl [Compound 67] | 7 | — (the symbol ‘—’ indicates tested but inactive up to 15 μg/ml) |  |  | 
50 | N#C/C(=C\c1ccc[nH]1)c1ccc(F)cc1F [Compound 69] | 5 | 2.5 µg/mL |  |  | 
51 | CN(C)C(=S)n1cccc1/C=C(\C#N)c1ccc(Cl)cc1 [Compound 84] | 19 | 10 µg/mL |  |  | 
52 | N#C/C(=C\c1ccc[nH]1)c1ccc(Cl)c(Cl)c1 [Compound 27] | 78 | 0.406 µg/mL |  |  | 
53 | N#C/C(=C\c1ccc[nH]1)c1ccc(C#N)cc1 [Compound 20] | 44 | 10 µg/mL |  |  | 
54 | N#C/C(=C\c1cc(Br)c[nH]1)c1ccc(C(F)(F)F)cc1 [Compound 11] | 18 | — (the symbol ‘—’ indicates tested but inactive up to 15 μg/ml) |  |  | 
55 | N#C/C(=C\c1cccn1C(=O)c1ccccc1)c1ccc(Cl)cc1 [Compound 82] | 6 | 1.25 µg/mL |  |  | 
56 | CC(C)=CCn1cccc1/C=C(\C#N)c1ccc(Cl)cc1 [Compound 80, (Z)-2-(4-chlorophenyl)-3-(1-(3-methylbut-2-enyl)-1H-pyrrol-2-yl)acrylonitrile] |  |  | > 15 |  | 
57 | N#C/C(=C\c1cc(Br)c[nH]1)c1cccc(F)c1 [Compound 31] | 27 | 1.75 µg/mL |  |  | 
58 | N#C/C(=C\c1ccc[nH]1)c1ccccc1-c1ccccc1 [Compound 89] | 2 |  |  |  | 
59 | N#C/C(=C\c1cccn1C(=O)OCc1ccccc1)c1ccc(Cl)cc1 [Compound 86] | 20 | 5.5 µg/mL |  |  | 
60 | CCOCn1cccc1/C=C(\C#N)c1ccccc1C(F)(F)F [Compound 57] |  | — (the symbol ‘—’ indicates tested but inactive up to 15 μg/ml) |  |  | 
61 | CCOCn1cccc1/C=C(\C#N)c1cccc(C)c1 [Compound 63] |  | 13 µg/mL |  |  | 
62 | CCOCn1cccc1/C=C(\C#N)c1ccc(Br)cc1 [Compound 51] |  | 7.5 µg/mL |  |  | 
63 | CCOCn1cccc1/C=C(\C#N)c1ccccc1C#N [Compound 50] |  | — (the symbol ‘—’ indicates tested but inactive up to 15 μg/ml) |  |  | 
64 | CCOCn1cccc1/C=C(\C#N)c1ccc2ccccc2c1 [Compound 53, 2-(2-naphthyl)-3-(1-ethoxymethyl-1H-pyrrol-2-yl)acrylonitrile] |  |  | > 15 |  | 
65 | CCOCn1cccc1/C=C(\C#N)c1ccc(Cl)c(Cl)c1 [Compound 56] |  | 6.5 µg/mL |  |  | 
